For one assay, the system named is MCF-7. In words: Cancer cell proliferation assay, single agent. The format is cell-based. The following applies: Homo sapiens.
A further assay deals with CDK4 (Homo sapiens (Human), UniProt P11802). As to the kind of experiment: In vitro kinase inhibition, luminescence (ADP-Glo) with retinoblastoma substrate. It is filed as biochemical.
A further assay addresses CDK6 (Homo sapiens (Human), UniProt Q00534). In words: biochemical. It is filed as biochemical.
A further assay concerns DU4475. In words: Cancer cell proliferation assay, single agent. The format is cell-based. The note with it: Homo sapiens.
For the next assay, the target named is FMS kinase (Homo sapiens (Human), UniProt P07333). As to the kind of experiment: LanthaScreen kinase assay (ATP, fluorescent-PolyGT substrate, TR-FRET). The format is biochemical. (In general: TR-FRET usually uses a lanthanide donor and a delayed reading to cut background.)
FMS kinase, sequence (P07333 20-972): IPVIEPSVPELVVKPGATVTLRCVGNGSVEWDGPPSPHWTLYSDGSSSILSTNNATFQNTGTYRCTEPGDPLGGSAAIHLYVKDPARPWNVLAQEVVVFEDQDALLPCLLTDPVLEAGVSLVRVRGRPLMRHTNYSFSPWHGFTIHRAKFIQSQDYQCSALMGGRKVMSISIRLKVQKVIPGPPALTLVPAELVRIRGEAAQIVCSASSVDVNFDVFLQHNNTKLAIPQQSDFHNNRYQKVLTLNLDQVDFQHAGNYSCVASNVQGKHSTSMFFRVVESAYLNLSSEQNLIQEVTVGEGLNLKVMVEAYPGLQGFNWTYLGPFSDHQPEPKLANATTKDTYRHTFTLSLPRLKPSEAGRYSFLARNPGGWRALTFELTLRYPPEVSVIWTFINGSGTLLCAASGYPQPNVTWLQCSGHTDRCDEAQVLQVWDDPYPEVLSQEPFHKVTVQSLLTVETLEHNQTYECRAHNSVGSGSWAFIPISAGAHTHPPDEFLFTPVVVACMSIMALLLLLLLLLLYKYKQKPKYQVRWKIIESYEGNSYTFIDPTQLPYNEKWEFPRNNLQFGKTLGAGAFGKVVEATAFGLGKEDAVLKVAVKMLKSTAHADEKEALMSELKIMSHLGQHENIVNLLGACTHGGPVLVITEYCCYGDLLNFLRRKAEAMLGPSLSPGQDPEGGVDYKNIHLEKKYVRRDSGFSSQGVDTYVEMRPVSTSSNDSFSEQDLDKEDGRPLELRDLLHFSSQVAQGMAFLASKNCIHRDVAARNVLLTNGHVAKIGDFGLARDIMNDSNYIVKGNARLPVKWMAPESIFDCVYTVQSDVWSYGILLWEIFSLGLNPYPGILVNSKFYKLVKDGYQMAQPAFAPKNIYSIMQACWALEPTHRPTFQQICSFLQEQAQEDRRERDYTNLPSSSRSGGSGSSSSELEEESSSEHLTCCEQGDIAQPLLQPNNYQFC
Where [1] appears, read: MCF7, read-out: IC50 (nM) MCF-7.
The mark [2] stands for this setting: DU-4475, read-out: IC50 (nM) DU4475.
[3] abbreviates: MCF7, MCF-7 cells, treated for 24-168 hours, read-out: IC50 (nM) MCF-7.
Setting [4] is: DU-4475, DU4475 cells, treated for 24-168 hours, read-out: IC50 (nM) DU4475.

The results in this text go back to US11174252B2, “Heterocyclic compounds as kinase inhibitors” (priority 2018, dated 2021).

Where two headings read alike, the source gives them in different places.

CDK4, sequence (P11802 whole entry): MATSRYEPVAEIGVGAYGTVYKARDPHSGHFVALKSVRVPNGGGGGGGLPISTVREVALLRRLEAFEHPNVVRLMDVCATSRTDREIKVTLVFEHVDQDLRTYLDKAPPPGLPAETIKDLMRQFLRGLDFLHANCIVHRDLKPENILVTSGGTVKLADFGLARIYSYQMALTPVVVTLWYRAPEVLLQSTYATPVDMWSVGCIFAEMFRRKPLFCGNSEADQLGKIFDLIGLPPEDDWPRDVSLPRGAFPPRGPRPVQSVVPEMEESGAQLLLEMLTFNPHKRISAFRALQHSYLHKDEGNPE
CDK4, sequence (P24385 whole entry partner): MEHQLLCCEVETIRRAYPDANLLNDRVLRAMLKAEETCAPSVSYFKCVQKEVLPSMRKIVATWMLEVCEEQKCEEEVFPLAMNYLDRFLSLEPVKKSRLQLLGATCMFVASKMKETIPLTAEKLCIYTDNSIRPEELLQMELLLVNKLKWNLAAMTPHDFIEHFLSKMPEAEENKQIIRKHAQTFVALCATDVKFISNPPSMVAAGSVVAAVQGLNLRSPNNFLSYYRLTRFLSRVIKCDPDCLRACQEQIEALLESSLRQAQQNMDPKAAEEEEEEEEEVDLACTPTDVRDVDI

One may read the IC50 as the point on the concentration scale where inhibition reaches its midpoint. In the case of `CCN1CCC(c2ccc(Nc3ncc(F)c(-c4cc(F)c5c(c4)N(C(C)C)CCO5)n3)nc2)CC1` [Compound 501, N-(5-(1-ethylpiperidin-4-yl)pyridin-2-yl)-5-fluoro-4-(8-fluoro-4-isopropyl-3,4-dihydro-2H-benzo[b][1,4]oxazin-6-yl)pyrimidin-2-amine], the IC50 in the assay on MCF-7 (setting [1]) was 140 nM; at CDK4, 2 nM; against CDK6, 5 nM; in the assay with DU4475 (setting [2]), 1020 nM.

On to `CC(C)N1CCOc2c(F)cc(-c3nc(Nc4ccc(CN5CCN(C)CC5)c(F)c4)ncc3F)cc21` [Compound 792, 5-fluoro-N-(3-fluoro-4-((4-methylpiperazin-1-yl)methyl)phenyl)-4-(8-fluoro-4-isopropyl-3,4-dihydro-2H-benzo[b][1,4]oxazin-6-yl)pyrimidin-2-amine], for which the IC50 with MCF-7 (setting [3]) came to 32 nM; on CDK4, 4 nM; at CDK6, 4 nM; in the assay with DU4475 (setting [2]), 75 nM.

For `CC(C)N1CCOc2c(F)cc(-c3nc(Nc4ccc(C5CCN(C)CC5)nn4)ncc3F)cc21` [Compound 517, N-(5-fluoro-4-(8-fluoro-4-isopropyl-3,4-dihydro-2H-benzo[b][1,4]oxazin-6-yl)pyrimidin-2-yl)-6-(1-methylpiperidin-4-yl)pyridazin-3-amine], the IC50 is 108 nM in the assay on MCF-7 (setting [3]), 1.5 nM against CDK4, 4 nM against CDK6 and 275 nM in the assay on DU4475 (setting [4]).

As for `CC(C)N1CCOc2c(F)cc(-c3nc(Nc4ccc(S(=O)(=O)N5CCN(C)CC5)cc4)ncc3F)cc21` [Compound 522, 5-fluoro-4-(8-fluoro-4-isopropyl-3,4-dihydro-2H-benzo[b][1,4]oxazin-6-yl)-N-(4-((4-methylpiperazin-1-yl)sulfonyl)phenyl)pyrimidin-2-amine], the half-inhibitory concentration (IC50) in the assay on MCF-7 (setting [3]) was determined as 345 nM; on CDK4, 36 nM; on CDK6, 105 nM; in the assay on DU4475 (setting [4]), 395 nM.

In the case of `CC(C)N1CCOc2c(F)cc(-c3nc(Nc4ccc(N5CCC(N)CC5)cn4)ncc3F)cc21` [Compound 788, N-(5-(4-aminopiperidin-1-yl)pyridin-2-yl)-5-fluoro-4-(8-fluoro-4-isopropyl-3,4-dihydro-2H-benzo[b][1,4]oxazin-6-yl)pyrimidin-2-amine], the IC50 was found to be 130 nM with MCF-7 (setting [3]), 2 nM against CDK4, 4 nM against CDK6 and 920 nM with DU4475 (setting [2]).

As to `CC(C)N1CCOc2c(F)cc(-c3nc(Nc4ccc(C5CCN(C(=O)CO)CC5)cn4)ncc3F)cc21` [Compound 510, 1-(4-(6-((5-fluoro-4-(8-fluoro-4-isopropyl-3,4-dihydro-2H-benzo[b][1,4]oxazin-6-yl)pyrimidin-2-yl)amino)pyridin-3-yl)piperidin-1-yl)-2-hydroxyethan-1-one], the half-maximal inhibitory concentration (IC50) with MCF-7 (setting [1]) stood at 293 nM; on CDK4 it was 3 nM; at CDK6 it was 4 nM; with DU4475 (setting [2]), 1970 nM.

Regarding `CCN1CCN(Cc2ccc(Nc3ncc(F)c(-c4cc(F)c5c(c4)N(C(C)C)CCO5)n3)cc2F)CC1` [Compound 461, N-(4-((4-ethylpiperazin-1-yl)methyl)-3-fluorophenyl)-5-fluoro-4-(8-fluoro-4-isopropyl-3,4-dihydro-2H-benzo[b][1,4]oxazin-6-yl)pyrimidin-2-amine], the IC50 in the assay with MCF-7 (setting [3]) is 30 nM; against CDK4, 3.5 nM; against CDK6, 9 nM; on FMS kinase it was 17 nM; with DU4475 (setting [4]) it was 50 nM.

Regarding `CC(C)N1CCOc2c(F)cc(-c3nc(Nc4ccc(C(=O)N5CCC(O)CC5)c(F)c4)ncc3F)cc21` [Compound 458, (2-fluoro-4-((5-fluoro-4-(8-fluoro-4-isopropyl-3,4-dihydro-2H-benzo[b][1,4]oxazin-6-yl)pyrimidin-2-yl)amino)phenyl)(4-hydroxypiperidin-1-yl)methanone], the IC50 with MCF-7 (setting [3]) was determined as 30 nM; on CDK4 it was 0.5 nM; on CDK6, 10 nM; at FMS kinase, 29 nM; with DU4475 (setting [2]) it was 35 nM.

As for `CCN1CCN(C(=O)c2ccc(Nc3ncc(F)c(-c4cc(F)c5c(c4)N(C(C)C)CCO5)n3)cc2F)CC1` [Compound 464, (4-ethylpiperazin-1-yl)(2-fluoro-4-((5-fluoro-4-(8-fluoro-4-isopropyl-3,4-dihydro-2H-benzo[b][1,4]oxazin-6-yl)pyrimidin-2-yl)amino)phenyl)methanone], the IC50 with MCF-7 (setting [3]) turned out to be 85 nM; against CDK4, 8.5 nM; on CDK6, 22 nM; against FMS kinase it was 42 nM; in the assay on DU4475 (setting [4]) it was 80 nM.

Take `CC(C)N1CCOc2c(F)cc(-c3nc(Nc4ccc(CN5CCC(N(C)C)CC5)c(F)c4)ncc3F)cc21` [Compound 462, N-(4-((4-(dimethylamino)piperidin-1-yl)methyl)-3-fluorophenyl)-5-fluoro-4-(8-fluoro-4-isopropyl-3,4-dihydro-2H-benzo[b][1,4]oxazin-6-yl)pyrimidin-2-amine]: the IC50 with MCF-7 (setting [3]) was found to be 40 nM; against CDK4, 5.5 nM; against CDK6, 9 nM; on FMS kinase, 25 nM; in the assay with DU4475 (setting [4]), 65 nM.

`CC1CN(c2ccc(Nc3ncc(F)c(-c4cc(F)c5c(c4)N(C(C)C)CCO5)n3)nc2)CC(C)O1` (stereo not shown) [Compound 515, N-(5-(2,6-dimethylmorpholino)pyridin-2-yl)-5-fluoro-4-(8-fluoro-4-isopropyl-3,4-dihydro-2H-benzo[b][1,4]oxazin-6-yl)pyrimidin-2-amine]: the IC50 with MCF-7 (setting [3]) is 2500 nM; on CDK4, 145 nM; on CDK6, greater than 200 nM; in the assay on DU4475 (setting [4]), greater than 10000 nM.

For the molecule `Cc1nc(Nc2ncc(F)c(-c3cc(F)c4c(c3)N(C(C)C)CCO4)n2)ccc1C1CCN(C)CC1` [Compound 503, 5-fluoro-4-(8-fluoro-4-isopropyl-3,4-dihydro-2H-benzo[b][1,4]oxazin-6-yl)-N-(6-methyl-5-(1-methylpiperidin-4-yl)pyridin-2-yl)pyrimidin-2-amine], the half-maximal inhibitory concentration (IC50) with MCF-7 (setting [3]) was determined as 240 nM; at CDK4 it was 5 nM; on CDK6 it was 18 nM; in the assay on DU4475 (setting [4]), 1260 nM.

Turning to `CC(C)N1CCOc2c(F)cc(-c3nc(Nc4ccc(C(N)=O)cn4)ncc3F)cc21` [Compound 521, 6-((5-fluoro-4-(8-fluoro-4-isopropyl-3,4-dihydro-2H-benzo[b][1,4]oxazin-6-yl)pyrimidin-2-yl)amino)nicotinamide], the IC50 with MCF-7 (setting [3]) was 3670 nM; at CDK4, 5.5 nM; on CDK6 it was 19.8 nM; with DU4475 (setting [4]) it was 7700 nM.

On to `CC(C)N1CCOc2c(F)cc(-c3nc(Nc4ccc(CN5CCN(CC6CC6)CC5)cn4)ncc3F)cc21` [Compound 516, N-(5-((4-(cyclopropylmethyl)piperazin-1-yl)methyl)pyridin-2-yl)-5-fluoro-4-(8-fluoro-4-isopropyl-3,4-dihydro-2H-benzo[b][1,4]oxazin-6-yl)pyrimidin-2-amine], for which the half-inhibitory concentration (IC50) in the assay with MCF-7 (setting [3]) came to 155 nM; against CDK4 it was 1 nM; at CDK6 it was 4 nM; in the assay on DU4475 (setting [4]), 995 nM.

For `CC(C)N1CCOc2c(F)cc(-c3nc(Nc4ccc(S(=O)(=O)NC5CCNCC5)cc4)ncc3F)cc21` [Compound 791, 4-((5-fluoro-4-(8-fluoro-4-isopropyl-3,4-dihydro-2H-benzo[b][1,4]oxazin-6-yl)pyrimidin-2-yl)amino)-N-(piperidin-4-yl)benzenesulfonamide], the IC50 in the assay with MCF-7 (setting [3]) turned out to be 90 nM; against CDK4, 9 nM; against CDK6, 41 nM; in the assay with DU4475 (setting [4]), 205 nM.
